Measurements as given in patent US20250145633A1, “SUBSTITUTED FURANOPYRIMIDINE COMPOUNDS AS PDE1 INHIBITORS” (Dart NeuroScience, LLC, priority 2017, published 2025).

Biological target: human PDE1B enzyme (Homo sapiens (Human), UniProt Q01064)
Assay: IMAP TR-FRET PDE1B enzymatic assay
Assay type: biochemical
Conditions: negative log of half-maximal molar inhibitory concentration, 200 nM FAM-cAMP, values given as bins; for IC50: read-out: PDE1b (pIC50) (converted)
Summary of the method: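 Full-length GST-tagged human PDE1B (250 pg/well) in IMAP BSA buffer with 10 U/ml calmodulin and 2.5 mM CaCl2; compound pre-incubated 5 min at room temperature, then 200 nM (final) FAM-cAMP for 30 min. IMAP binding reagent/Tb added, 1 h; TR-FRET 520/490 ratio read. IC50 from sigmoidal dose-response fit.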

| Compound | IC50 | PDE1b (pIC50) |
| --- | --- | --- |
| COCCN(Cc1cccc(OC)c1)C(=O)c1c(C)oc2ncnc(NC3(C)CC3)c12 [Example 580, N-(2-Methoxyethyl)-N-[(3-methoxyphenyl)methyl]-6-methyl-4-[(1-methylcyclopropyl)amino]furo[2,3-d]pyrimidine-5-carboxamide] | 0.01 to 0.1 µM |  |
| Cc1oc2ncnc(NC3(C)CC3)c2c1C(=O)N(C)CCc1nc2cc(F)ccc2[nH]1 [Example 583, N-[2-(5-Fluoro-1H-1,3-benzodiazol-2-yl)ethyl]-N,6-dimethyl-4-[(1-methylcyclopropyl)amino]furo[2,3-d]pyrimidine-5-carboxamide] | 0.1 to 1 µM |  |
| Cc1oc2ncnc(NC3(C)CC3)c2c1C(=O)NCc1cc2ccc(F)cc2[nH]c1=O [Example 584, N-[(7-Fluoro-2-oxo-1,2-dihydroquinolin-3-yl)methyl]-6-methyl-4-[(1-methylcyclopropyl)amino]furo[2,3-d]pyrimidine-5-carboxamide] | 0.01 to 0.1 µM |  |
| Cc1oc2ncnc(NC3(C)CC3)c2c1C(=O)NCCOc1ccc(F)cc1 [Example 585, N-[2-(4-Fluorophenoxy)ethyl]-6-methyl-4-[(1-methylcyclopropyl)amino]furo[2,3-d]pyrimidine-5-carboxamide] |  | >8 |
| COc1ccccc1OC1CN(C(=O)c2c(C)oc3ncnc(NC4(C)CC4)c23)C1 [Example 589, 5-[3-(2-Methoxyphenoxy)azetidine-1-carbonyl]-6-methyl-N-(1-methylcyclopropyl)furo[2,3-d]pyrimidin-4-amine] | 0.01 to 0.1 µM |  |
| COc1cccc(OC2CN(C(=O)c3c(C)oc4ncnc(NC5(C)CC5)c34)C2)c1 [Example 590, 5-[3-(3-Methoxyphenoxy)azetidine-1-carbonyl]-6-methyl-N-(1-methylcyclopropyl)furo[2,3-d]pyrimidin-4-amine] | < 0.01 µM |  |
| CCOc1ccc(C(C)NC(=O)c2c(C)oc3ncnc(NC4(C)CC4)c23)cc1F (stereo not drawn) [Example 595, N-[1-(4-Ethoxy-3-fluorophenyl)ethyl]-6-methyl-4-[(1-methylcyclopropyl)amino]furo[2,3-d]pyrimidine-5-carboxamide] | 0.01 to 0.1 µM |  |
| COc1cccc2c1OCCCN(C(=O)c1c(C)oc3ncnc(NC4(C)CC4)c13)C2 [Example 600] | 0.01 to 0.1 µM |  |
| COc1ccc(CN(C)C(=O)c2c(C)oc3ncnc(NC4(C)CC4)c23)cc1O [Example 604, N-[(3-Hydroxy-4-methoxyphenyl)methyl]-N,6-dimethyl-4-[(1-methylcyclopropyl)amino]furo[2,3-d]pyrimidine-5-carboxamide] | 0.01 to 0.1 µM |  |
| C#CCN(Cc1ccc(OC)cc1)C(=O)c1c(C)oc2ncnc(NC3(C)CC3)c12 [Example 606, N-[(4-Methoxyphenyl)methyl]-6-methyl-4-[(1-methylcyclopropyl)amino}-N-(prop-2-yn-1-yl)furo[2,3-d]pyrimidine-5-carboxamide] | 0.01 to 0.1 µM |  |
| COc1ccccc1C(C)NC(=O)c1c(C)oc2ncnc(NC3(C)CC3)c12 (stereo not drawn) [Example 613, N-[1-(2-Methoxyphenyl)ethyl]-6-methyl-4-[(1-methylcyclopropyl)amino]furo[2,3-d]pyrimidine-5-carboxamide] | 0.01 to 0.1 µM |  |
| Cc1oc2ncnc(NC3(C)CC3)c2c1C(=O)NCc1cc([N+](=O)[O-])ccc1F [Example 614, N-[(2-Fluoro-5-nitrophenyl)methyl]-6-methyl-4-[(1-methylcyclopropyl)amino]furo[2,3-d]pyrimidine-5-carboxamide] | < 0.01 µM |  |
| COc1ccc(CCNC(=O)c2c(C)oc3ncnc(NC4(C)CC4)c23)cc1 [Example 619, N-[2-(4-Methoxyphenyl)ethyl]-6-methyl-4-[(1-methylcyclopropyl)amino]furo[2,3-d]pyrimidine-5-carboxamide] | 0.01 to 0.1 µM |  |
| Cc1oc2ncnc(NC3(C)CC3)c2c1C(=O)Nc1cnn(-c2cccnc2)c1 [Example 620, 6-Methyl-4-[(1-methylcyclopropyl)amino]-N-[1-(pyridin-3-yl)-1H-pyrazol-4-yl]furo[2,3-d]pyrimidine-5-carboxamide] | 0.01 to 0.1 µM |  |
| Cc1oc2ncnc(NC3(C)CC3)c2c1C(=O)Nc1cnn(-c2ccncc2)c1 [Example 621, 6-Methyl-4-[(1-methylcyclopropyl)amino]-N-[1-(pyridin-4-yl)-1H-pyrazol-4-yl]furo[2,3-d]pyrimidine-5-carboxamide] | 0.01 to 0.1 µM |  |
| COc1ncnc2c1CN(C(=O)c1c(C)oc3ncnc(NC4(C)CC4)c13)C2 [Example 622, 5-{4-Methoxy-5H,6H,7H-pyrrolo[3,4-d]pyrimidine-6-carbonyl}-6-methyl-N-(1-methylcyclopropyl)furo[2,3-d]pyrimidin-4-amine] | 0.1 to 1 µM |  |
| Cc1oc2ncnc(NC3(C)CC3)c2c1C(=O)N1CCn2cc(C(F)(F)F)nc2C1 [Example 623, 6-Methyl-N-(1-methylcyclopropyl)-5-[2-(trifluoromethyl)-5H,6H,7H,8H-imidazo[1,2-a]pyrazine-7-carbonyl]furo[2,3-d]pyrimidin-4-amine] | 0.01 to 0.1 µM |  |

| Compound | IC50 | PDE1b (pIC50) |
| --- | --- | --- |
| Cc1oc2ncnc(NC3(C)CC3)c2c1C(=O)N1CCn2c(Br)cnc2C1 [Example 624, 5-{3-Bromo-5H,6H,7H,8H-imidazo[1,2-a]pyrazine-7-carbonyl}-6-methyl-N-(1-methylcyclopropyl)furo[2,3-d]pyrimidin-4-amine] | 0.01 to 0.1 µM |  |
| Cc1nccc(CNC(=O)c2c(C)oc3ncnc(NC4(C)CC4)c23)n1 [Example 625, 6-Methyl-4-[(1-methylcyclopropyl)amino]-N-[(2-methylpyrimidin-4-yl)methyl]furo[2,3-d]pyrimidine-5-carboxamide] | 0.01 to 0.1 µM |  |
| Cc1oc2ncnc(NC3(C)CC3)c2c1C(=O)NCc1noc(C(F)(F)Cl)n1 [Example 626, N-{[5-(Chlorodifluoromethyl)-1,2,4-oxadiazol-3-yl]methyl}-6-methyl-4-[(1-methylcyclopropyl)amino]furo[2,3-d]pyrimidine-5-carboxamide] | 0.01 to 0.1 µM |  |
| Cc1noc(CNC(=O)c2c(C)oc3ncnc(NC4(C)CC4)c23)n1 [Example 627, 6-Methyl-N-[(3-methyl-1 2 4-oxadiazol-5-yl)methyl]-4-[(1-methylcyclopropyl)amino]furo[2,3-d]pyrimidine-5-carboxamide] | 0.01 to 0.1 µM |  |
| Cc1oc2ncnc(NC3(C)CC3)c2c1C(=O)N1CCc2c(ncnc2C(C)C)C1 [Example 628, 6-Methyl-N-(1-methylcyclopropyl)-5-[4-(propan-2-yl)-5H,6H,7H,8H-pyrido[3,4-d]pyrimidine-7-carbonyl]furo[2,3-d]pyrimidin-4-amine] | 0.01 to 0.1 µM |  |
| COc1ncnc2c1CCN(C(=O)c1c(C)oc3ncnc(NC4(C)CC4)c13)CC2 [Example 629, 5-{4-Methoxy-5H,6H,7H,8H,9H-pyrimido[4,5-d]azepine-7-carbonyl}-6-methyl-N-(1-methylcyclopropyl)furo[2,3-d]pyrimidin-4-amine] | 0.1 to 1 µM |  |
| Cc1oc2ncnc(NC3(C)CC3)c2c1C(=O)N1CCc2cccnc2C1 [Example 630, 6-Methyl-N-(1-methylcyclopropyl)-5-(5,6,7,8-tetrahydro-1,7-naphthyridine-7-carbonyl)furo[2,3-d]pyrimidin-4-amine] | 0.01 to 0.1 µM |  |
| Cc1oc2ncnc(NC3(C)CC3)c2c1C(=O)N1CCc2ncccc2C1 [Example 631, 6-Methyl-N-(1-methylcyclopropyl)-5-(5,6,7,8-tetrahydro-1,6-naphthyridine-6-carbonyl)furo[2,3-d]pyrimidin-4-amine] | 0.1 to 1 µM |  |
| Cc1cc2n(n1)CCN(C(=O)c1c(C)oc3ncnc(NC4(C)CC4)c13)C2 [Example 632, 6-Methyl-5-f{2-methyl-4H,5H,6H,7H-pyrazolo[1,5-a]pyrazine-5-carbonyl}-N-(1-methylcyclopropyl)furo[2,3-d]pyrimidin-4-amine] | 0.01 to 0.1 µM |  |
| Cc1cn2c(n1)CN(C(=O)c1c(C)oc3ncnc(NC4(C)CC4)c13)CC2 [Example 633, 6-Methyl-5-{2-methyl-5H,6H,7H,8H-imidazo[1,2-a]pyrazine-7-carbonyl}-N-(1-methylcyclopropyl)furo[2,3-d]pyrimidin-4-amine] | 0.1 to 1 µM |  |
| COc1cc2c(cn1)CN(C(=O)c1c(C)oc3ncnc(NC4(C)CC4)c13)CC2 [Example 634, 5-(6-Methoxy-1,2,3,4-tetrahydro-2,7-naphthyridine-2-carbonyl)-6-methyl-N-(1-methylcyclopropyl)furo[2,3-d]pyrimidin-4-amine] | 0.01 to 0.1 µM |  |
| COc1ccc2c(n1)CCN(C(=O)c1c(C)oc3ncnc(NC4(C)CC4)c13)C2 [Example 635, 5-(2-Methoxy-5,6,7,8-tetrahydro-1,6-naphthyridine-6-carbonyl)-6-methyl-N-(1-methylcyclopropyl)furo[2,3-d]pyrimidin-4-amine] | 0.01 to 0.1 µM |  |
| Cc1oc2ncnc(NC3(C)CC3)c2c1C(=O)N1CCn2nc(C#N)cc2C1 [Example 636, 5-{6-Methyl-4-[(1-methylcyclopropyl)amino]furo[2,3-d]pyrimidine-5-carbonyl}-4H,5H,6H,7H-pyrazolo[1,5-a]pyrazine-2-carbonitrile] | 0.1 to 1 µM |  |
| Cc1oc2ncnc(NC3(C)CC3)c2c1C(=O)N1CCc2ccncc2C1 [Example 637, 6-Methyl-N-(1-methylcyclopropyl)-5-(1,2,3,4-tetrahydro-2 7-naphthyridine-2-carbonyl)furo[2,3-d]pyrimidin-4-amine] | 0.1 to 1 µM |  |
| Cc1oc2ncnc(NC3(C)CC3)c2c1C(=O)N1CCn2c(C(F)(F)F)nc(C3CCOCC3)c2C1 [Example 638, 6-Methyl-N-(1-methylcyclopropyl)-5-[1-(oxan-4-yl)-3-(trifluoromethyl)-5H,6H,7H,8H-imidazo[1,5-a]pyrazine-7-carbonyl]furo[2,3-d]pyrimidin-4-amine] | 0.1 to 1 µM |  |
| Cc1oc2ncnc(NC3(C)CC3)c2c1C(=O)N1CCn2c(C)nc(C3CCOCC3)c2C1 [Example 639, 6-Methyl-5-[3-methyl-1-(oxan-4-yl)-5H,6H,7H,8H-imidazo[1,5-a]pyrazine-7-carbonyl]-N-(1-methylcyclopropyl)furo[2,3-d]pyrimidin-4-amine] | 0.1 to 1 µM |  |
